What was measured:
Single dose PK, dog = assay type: in vivo
Experimental: The PK of SRA737 have been determined in the mouse, rat, dog and monkey following oral and IV administration (Table 3). […] An acceptable terminal elimination t1/2 was also observed in each species. […] The plasma protein binding of SRA737 at 1 and 10 μM was examined in mouse, minipig, monkey and human plasma using ultracentrifugation and in dog plasma (10 μM) using rapid equilibrium dialysis.

[1] = system: HGSOC PDX model with partial resistance to PARPi; test: In vivo efficacy, HGSOC PDX model with partial resistance to PARPi; design: species or system mouse; conditions: high dose SRA737 monotherapy
Experimental: (§1) A program of in vivo efficacy studies was performed to assess the activity of SRA737 in combination with genotoxic chemotherapy and targeted agents, and as monotherapy.
(§2) One of these models also carried a MYCN amplification. A fourth HGSOC PDX model with partial resistance to PARPi was also sensitive to high dose SRA737 monotherapy.

[2] = Excretion in urine and feces, rats; assay type: in vivo; conditions: rat; over 24 hours
Experimental: The excretion of SRA737 has been studied in mice and rats administered SRA737 at either 5 mg/kg IV or 10 mg/kg orally. Urine and feces were collected for a 24-hour period after dosing. In mice, renal excretion of intact SRA737 was consistently low (less than 10% of dose) after both oral and IV administration. Following IV administration of SRA737, less than 8% of the dose was recovered as intact drug in the feces while after oral administration this figure was less than 3%. Excretion of intact SRA737 was lower in the rat than in the mouse with <1% of dose excreted renally over 24 hours and less than 1.5% of dose excreted into the feces over 24 hours.

[3] = GLP 28-day repeat oral dose toxicity and toxicokinetics, minipig; assay type: in vivo
From the text: Reference source not found.6.

CYP 2D6 = CYP 2D6 (Homo sapiens, UniProt P10635); test: CYP inhibition, 2D6; assay type: in vitro ADME; conditions: highest concentration investigated
Sequence of CYP 2D6 (P10635 whole entry): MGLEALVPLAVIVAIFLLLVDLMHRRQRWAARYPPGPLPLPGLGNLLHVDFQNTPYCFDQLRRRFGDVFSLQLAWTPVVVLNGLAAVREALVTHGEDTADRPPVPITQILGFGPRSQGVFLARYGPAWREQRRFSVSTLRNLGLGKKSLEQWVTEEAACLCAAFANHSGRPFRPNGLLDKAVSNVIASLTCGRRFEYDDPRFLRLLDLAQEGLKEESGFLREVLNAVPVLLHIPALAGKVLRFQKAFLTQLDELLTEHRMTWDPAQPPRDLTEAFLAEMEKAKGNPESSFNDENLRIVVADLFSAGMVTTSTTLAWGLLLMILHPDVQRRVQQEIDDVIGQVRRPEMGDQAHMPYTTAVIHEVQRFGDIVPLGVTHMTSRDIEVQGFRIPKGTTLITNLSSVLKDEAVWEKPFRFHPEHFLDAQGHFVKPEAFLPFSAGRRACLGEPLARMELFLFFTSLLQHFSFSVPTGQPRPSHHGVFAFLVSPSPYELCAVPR

[4] = Three-cycle combination toxicity study with gemcitabine and cisplatin, mouse; assay type: in vivo; conditions: mice; SRA737 with IV gemcitabine and cisplatin, intermittent schedule over 18 days
From the text: Clinical combination of SRA737 and gemcitabine in some cases therefore elicited exacerbated hematological and GI toxicities.

PDX model of TNBC = test: In vivo efficacy, PDX model of TNBC; design: species or system mouse; conditions: with low-dose gemcitabine; data not shown
Experimental: as §1, §2

CYP 2C9 = CYP 2C9 (Homo sapiens, UniProt P11712); test: CYP inhibition, 2C9; assay type: in vitro ADME; conditions: highest concentration investigated
Sequence of CYP 2C9 (P11712 whole entry): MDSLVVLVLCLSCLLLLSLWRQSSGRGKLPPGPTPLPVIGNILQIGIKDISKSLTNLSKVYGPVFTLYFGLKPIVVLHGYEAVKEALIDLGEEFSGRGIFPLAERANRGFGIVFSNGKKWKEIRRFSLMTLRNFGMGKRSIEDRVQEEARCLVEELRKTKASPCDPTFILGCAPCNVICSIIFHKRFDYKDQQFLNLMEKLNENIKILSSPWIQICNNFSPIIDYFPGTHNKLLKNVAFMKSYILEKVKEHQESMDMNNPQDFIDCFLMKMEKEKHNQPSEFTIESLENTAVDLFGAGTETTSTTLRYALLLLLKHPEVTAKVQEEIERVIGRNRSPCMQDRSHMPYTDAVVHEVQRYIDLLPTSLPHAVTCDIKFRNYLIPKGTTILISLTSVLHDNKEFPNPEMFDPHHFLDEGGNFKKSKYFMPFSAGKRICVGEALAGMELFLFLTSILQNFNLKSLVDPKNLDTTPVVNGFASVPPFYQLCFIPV

Calu6 human (NSCLC) = test: In vivo efficacy, Calu6 xenograft model; design: species or system mouse; conditions: data not shown
Experimental: as §1, §2

[5] = GLP 28-day repeat oral dose toxicity and toxicokinetics, mouse
MOLM-13 model of AML = test: In vivo efficacy, MOLM-13 model; design: species or system mouse; conditions: data not shown
Experimental: as §1, §2

Chk1 = molecular target: T1, Chk1 (Homo sapiens, UniProt O14757); test: In vitro genotoxic chemotherapy-induced Chk1 autophosphorylation, checkpoint arrest and cytotoxicity potentiation; assay type: cell-based
T1 construct: endogenous in cells
T1 sequence (O14757 1-476): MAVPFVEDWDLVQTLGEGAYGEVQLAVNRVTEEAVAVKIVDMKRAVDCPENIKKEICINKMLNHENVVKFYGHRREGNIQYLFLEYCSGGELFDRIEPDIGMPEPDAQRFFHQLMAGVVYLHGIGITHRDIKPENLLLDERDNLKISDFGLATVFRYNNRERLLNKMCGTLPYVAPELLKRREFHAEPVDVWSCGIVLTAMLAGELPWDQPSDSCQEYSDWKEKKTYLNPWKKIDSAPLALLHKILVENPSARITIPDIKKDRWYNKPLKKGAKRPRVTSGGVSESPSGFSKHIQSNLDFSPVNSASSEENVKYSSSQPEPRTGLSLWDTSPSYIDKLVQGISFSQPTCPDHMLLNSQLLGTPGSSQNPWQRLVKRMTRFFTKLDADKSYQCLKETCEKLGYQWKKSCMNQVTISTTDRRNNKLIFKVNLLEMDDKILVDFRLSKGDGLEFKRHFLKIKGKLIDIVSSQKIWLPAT

[6] = system: SJSA-1 human osteosarcoma; test: In vivo efficacy, SJSA-1 xenograft model; design: species or system mouse; conditions: data not shown
Experimental: as §1, §2

HT29 human colon cancer = test: In vivo efficacy, HT29 xenograft model; design: species or system mouse; conditions: data not shown
Experimental: as §1, §2

[7] = system: Eμ-Myc model of B-cell lymphoma; test: In vivo efficacy, Eμ-Myc model; design: species or system mouse; conditions: data not shown
Experimental: as §1, §2

[8] = in vivo, Dog IV 1 mg/kg single dose
[9] = in vivo, Dog oral 5 mg/kg single dose
[10] = in vivo, po, Minipig Female, 10 mg/kg/day (HNSTD), daily dosing for 28 days
[11] = in vivo, po, Minipig Female, 40 mg/kg/day, daily dosing for 28 days
[12] = in vivo, po, Minipig Female, 75 mg/kg/day, daily dosing for 28 days
[13] = in vivo, po, Minipig Male, 10 mg/kg/day (HNSTD), daily dosing for 28 days
[14] = in vivo, po, Minipig Male, 40 mg/kg/day, daily dosing for 28 days
[15] = in combination with standard-dose gemcitabine
[16] = female, mouse, in vivo, po, 10 mg/kg/day
[17] = female, mouse, in vivo, po, 40 mg/kg/day
[18] = female, mouse, in vivo, po, 75 mg/kg/day
[19] = male, mouse, in vivo, po, 10 mg/kg/day
[20] = male, mouse, in vivo, po, 40 mg/kg/day
[21] = male, mouse, in vivo, po, 75 mg/kg/day

N#Cc1cnc(Nc2cc(NCC3CNCCO3)c(C(F)(F)F)cn2)cn1 (stereo not shown) [SRA737, 5-[[4-[[morpholin-2-yl]methylamino]-5-(trifluoromethyl)-2-pyridyl]amino]pyrazine-2-carbonitrile]
Foral (Single dose PK, dog; Dog oral 5 mg/kg single dose): 86%
AUC(0-t) (Single dose PK, dog; [8]): 200 ng·h/mL
half-life (Single dose PK, dog; [8]): 2.8 h
AUC(0-t) (Single dose PK, dog; [9]): 850 ng·h/mL
Cmax (Single dose PK, dog; [9]): 130 ng/mL
Tmax (Single dose PK, dog; [9]): 1 to 3 h
half-life (Single dose PK, dog; [9]): 3.5 h
sensitivity to SRA737 [1]: sensitive
intact SRA737 excreted into the feces [2]: less than 1.5 % of dose
intact SRA737 excreted renally [2]: < 1 % of dose
AUC(0-t) [3, 10]: 6560 ng·h/mL
Cmax [3, 10]: 515 ng/mL
half-life [3, 10]: 13.6 h
AUC(0-t) [3, 11]: 45500 ng·h/mL
Cmax [3, 11]: 2830 ng/mL
half-life [3, 11]: 14.3 h
AUC(0-t) [3, 12]: 97000 ng·h/mL
Cmax [3, 12]: 5340 ng/mL
half-life [3, 12]: 31.5 h
AUC(0-t) [3, 13]: 6480 ng·h/mL
Cmax [3, 13]: 622 ng/mL
half-life [3, 13]: 9.25 h
AUC(0-t) [3, 14]: 22200 ng·h/mL
Cmax at 28 days [3, 14]: 2070 ng/mL
half-life [3, 14]: 7.66 h
toxicological findings ([3]; minipig pivotal study, dose-dependent, reversible on cessation): bone marrow toxicity
IC50 (CYP 2D6): 10 to 50 µM
findings exacerbated by SRA737 over the cisplatin/gemcitabine control group [4]: reversible marrow toxicity, consequent splenomegaly, and the high-dose intestinal observations
synergy (PDX model of TNBC): Synergy
IC50 (CYP 2C9): 10 to 50 µM
antitumor activity (Calu6 human (NSCLC); [15]): Significant, dose-dependent antitumor activity
synergy (Calu6 human (NSCLC); with gemcitabine and carboplatin): Synergy
AUC(0-t) [5, 16]: 3610 ng·h/mL
Cmax [5, 16]: 918 ng/mL
half-life [5, 16]: 5.18 h
AUC(0-t) [5, 17]: 24800 ng·h/mL
Cmax at 28 days [5, 17]: 2350 ng/mL
half-life [5, 17]: 5.09 h
AUC(0-t) [5, 18]: 45500 ng·h/mL
Cmax [5, 18]: 4030 ng/mL
half-life [5, 18]: 6.96 h
AUC(0-t) [5, 19]: 4410 ng·h/mL
Cmax [5, 19]: 903 ng/mL
AUC(0-t) [5, 20]: 34300 ng·h/mL
Cmax at 28 days [5, 20]: 3250 ng/mL
half-life [5, 20]: 6.22 h
AUC(0-t) [5, 21]: 68600 ng·h/mL
Cmax [5, 21]: 5450 ng/mL
half-life [5, 21]: 8.36 h
toxicological findings ([5]; mouse pivotal study, dose-dependent, reversible on cessation): bone marrow toxicity
MTD at 28 days ([5]; mouse, in vivo, po): 75 mg/kg/day
single agent efficacy (MOLM-13 model of AML): single agent efficacy
cytotoxicity of genotoxic chemotherapeutic agents and targeted agents (Chk1): dose-dependent potentiation
genotoxicity-induced checkpoint arrest (Chk1): dose-dependent inhibition
genotoxic chemotherapy-induced Chk1 autophosphorylation (Chk1; data not shown): potently inhibited
antitumor activity [6, 15]: Significant, dose-dependent antitumor activity
synergy ([6]; with low-dose gemcitabine): Synergy
antitumor activity (HT29 human colon cancer; [15]): Significant, dose-dependent antitumor activity
synergy (HT29 human colon cancer; with irinotecan): Synergy
synergy (HT29 human colon cancer; with low-dose gemcitabine): Synergy
single agent efficacy [7]: single agent efficacy
